Consider four compounds from US11376232B2, “Vidofludimus for use in the treatment or prevention of viral diseases” (Immunic AG, priority 2020, dated 2022).

One data set deals with mDHODH (Mus musculus, UniProt O35435). Nature of the data set: mDHODH inhibition, in vitro protein. The format is biochemical.
For data set [1], the system named is SARS-CoV-2. As to the kind of experiment: SARS-CoV-2 CPE inhibition (neutral red) in Vero 76 cells. In kind it is cell-based. The settings on record: Severe acute respiratory syndrome coronavirus 2, Vero 76, 120 h, read-out: EC50: 50% effective antiviral concentration.
A short description of data set [2]: Cytotoxicity in uninfected Vero 76 cells (neutral red). In kind it is cell-based. Conditions: African green monkey, Vero 76, day 5, neutral red, read-out: CC50: 50% cytotoxic concentration of compound without virus added.
The subject of a further data set is SARS-CoV-2 USA_WA1/2020. Nature of the data set: microbe, parasite or virus in culture. The format is cell-based. Conditions: Severe acute respiratory syndrome coronavirus 2, Vero 76.
Data set [3] relates to SARS-CoV-2 MUC-IMB-1. Nature of the data set: microbe, parasite or virus in culture. The format is cell-based. The settings on record: Severe acute respiratory syndrome coronavirus 2, Vero 76.
The test system of data set [4] is SARS-CoV-2 MUC-IMB-1. Nature of the data set: microbe, parasite or virus in culture. Conditions: Severe acute respiratory syndrome coronavirus 2, Vero. In kind it is cell-based.
Data set [5] concerns SARS-CoV-2 MUC-IMB-1. Nature of the data set: microbe, parasite or virus in culture. The format is cell-based. Conditions: Severe acute respiratory syndrome coronavirus 2, Caco-2.
Data set [6] concerns SARS-CoV-2. The format is cell-based. Conditions: CaCo-2 supernatants on Vero E6 monolayers, treatment setting.
Data set [7] relates to SARS-CoV-2. In kind it is cell-based.
The subject of data set [8] is hyperactivated immune cells. Nature of the data set: T-cell mediated cytokine production of hyperactivated immune cells. In kind it is cell-based.
A short description of data set [9]: Clinical tolerability of repeated daily dosing. The format is in vivo, human. Conditions: clinical trials.
Data set [10] relates to SARS-CoV-2 infection (COVID-19).
For data set [11] the following is noted: human, in vivo.
Data set [12] relates to HIV-191US005 (CCR5-tropic, Subtype B). Conditions: cited from earlier work.
Data set [13] relates to HCV sub genomic replicon of genotype 1b. The settings on record: cited from earlier work.
The test system of the next data set is Lassa fever Arena virus. The settings on record: Plaque reduction, virus protein expression; A549 and Vero models; cited from earlier work.
Data set [14] can be described thus: in vitro. The settings on record: African green monkey.
Data set [15] in a line: in vitro. Conditions: African green monkey. This is another data set of the same source.
Data set [16] in a line: in vitro. Conditions: human.
Data set [17] can be described thus: Cytotoxicity on fibroblasts.
Data set [18] is described as follows: Cytotoxicity on HepG2 cells. Conditions: human.
Data set [19] in a line: Cytotoxicity in Vero 76 cells (Table 4). The settings on record: African green monkey.
A further data set deals with Vero 76. As to the kind of experiment: Cytotoxicity in Vero 76 cells (Table 4). The settings on record: Vero 76, 3 days post infection.
For data set [20], the system named is SARS-CoV-2 infection (COVID-19). Nature of the data set: Phase 2 placebo-controlled trial in hospitalized patients with moderate COVID-19. Conditions: human, in vivo.
For another data set, the system named is Human T-cells. Nature of the data set: Proliferation assay of human T-cells (PHA-stimulated PBMCs, BrdU). In kind it is cell-based. The settings on record: T-cell, PHA 20 μg/ml, 48 hours, BrdU ELISA. As to the method: Human peripheral blood mononuclear cells (PBMCs) were obtained from healthy volunteers and transferred to RPMI1640 cell culture medium containing 10% dialyzed fetal calf serum. 80.000 cells per well were pipetted into a 96-well plate and phytohemagglutinin (PHA) was added in phosphate buffered saline to a final concentration of 20 μg/ml to stimulate T-cell proliferation. Vidofludimus was added in dimethyl sulfoxide (DMSO, final concentration: 0.1 vol %) to final concentrations ranging from 20 nM to 50 μM. After incubation for 48 hours, cell proliferation was quantified using the “cell proliferation ELISA BrdU” (Roche) according to the manufacturer's instructions. Half maximal inhibition (IC50) was calculated using a 4-parameter sigmoidal curve fit.

Another data set addresses EGFR (Homo sapiens, UniProt P00533). As to the kind of experiment: Off-target activity on EGFR. The settings on record: in contrast to leflunomide and teriflunomide.
The target of the next data set is T1, Auroroa-A kinases (Homo sapiens, UniProt O14965).
T1 sequence (O14965 1-403): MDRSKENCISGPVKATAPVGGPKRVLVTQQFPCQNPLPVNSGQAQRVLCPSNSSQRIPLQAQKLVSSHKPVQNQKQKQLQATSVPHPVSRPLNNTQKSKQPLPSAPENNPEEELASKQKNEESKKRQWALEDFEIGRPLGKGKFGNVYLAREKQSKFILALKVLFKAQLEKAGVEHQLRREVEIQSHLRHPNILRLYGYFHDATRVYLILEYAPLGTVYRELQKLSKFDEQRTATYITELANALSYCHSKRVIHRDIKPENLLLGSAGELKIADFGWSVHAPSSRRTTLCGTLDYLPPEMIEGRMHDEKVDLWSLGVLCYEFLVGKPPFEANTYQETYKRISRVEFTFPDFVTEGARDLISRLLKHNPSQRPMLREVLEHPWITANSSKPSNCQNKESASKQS
Nature of the data set: Off-target activity on Aurora-A kinase. Conditions: in contrast to leflunomide and teriflunomide.

A further data set concerns bone marrow. Nature of the data set: Animal studies, effects on bone marrow. In kind it is in vivo. Conditions: animals treated with large doses.
For data set [21] the following is noted: human, in vivo. This is another data set of the same source.
The conditions of data set [22]: in vivo; cited from earlier work.

Several values for one entry are separate records, joined by “and”; a condition that tells them apart may be missing. Equal values may be shown once. Where a name gives a salt, the structure may show the parent alone. Read-outs that look alike come from different tables or passages of the source.

Chain of mDHODH (O35435 whole entry): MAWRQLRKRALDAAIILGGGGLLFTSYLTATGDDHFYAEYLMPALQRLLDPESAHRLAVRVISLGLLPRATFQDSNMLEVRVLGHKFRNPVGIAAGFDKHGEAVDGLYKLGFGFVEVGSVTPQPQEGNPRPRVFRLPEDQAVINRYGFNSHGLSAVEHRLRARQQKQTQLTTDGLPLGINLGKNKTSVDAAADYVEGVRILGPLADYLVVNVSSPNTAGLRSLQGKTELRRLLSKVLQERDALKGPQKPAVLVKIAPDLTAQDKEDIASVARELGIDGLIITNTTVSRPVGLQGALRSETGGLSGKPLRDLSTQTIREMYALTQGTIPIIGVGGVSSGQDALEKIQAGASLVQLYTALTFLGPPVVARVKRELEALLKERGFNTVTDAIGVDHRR
Chain of EGFR (P00533 25-1210, species assumed): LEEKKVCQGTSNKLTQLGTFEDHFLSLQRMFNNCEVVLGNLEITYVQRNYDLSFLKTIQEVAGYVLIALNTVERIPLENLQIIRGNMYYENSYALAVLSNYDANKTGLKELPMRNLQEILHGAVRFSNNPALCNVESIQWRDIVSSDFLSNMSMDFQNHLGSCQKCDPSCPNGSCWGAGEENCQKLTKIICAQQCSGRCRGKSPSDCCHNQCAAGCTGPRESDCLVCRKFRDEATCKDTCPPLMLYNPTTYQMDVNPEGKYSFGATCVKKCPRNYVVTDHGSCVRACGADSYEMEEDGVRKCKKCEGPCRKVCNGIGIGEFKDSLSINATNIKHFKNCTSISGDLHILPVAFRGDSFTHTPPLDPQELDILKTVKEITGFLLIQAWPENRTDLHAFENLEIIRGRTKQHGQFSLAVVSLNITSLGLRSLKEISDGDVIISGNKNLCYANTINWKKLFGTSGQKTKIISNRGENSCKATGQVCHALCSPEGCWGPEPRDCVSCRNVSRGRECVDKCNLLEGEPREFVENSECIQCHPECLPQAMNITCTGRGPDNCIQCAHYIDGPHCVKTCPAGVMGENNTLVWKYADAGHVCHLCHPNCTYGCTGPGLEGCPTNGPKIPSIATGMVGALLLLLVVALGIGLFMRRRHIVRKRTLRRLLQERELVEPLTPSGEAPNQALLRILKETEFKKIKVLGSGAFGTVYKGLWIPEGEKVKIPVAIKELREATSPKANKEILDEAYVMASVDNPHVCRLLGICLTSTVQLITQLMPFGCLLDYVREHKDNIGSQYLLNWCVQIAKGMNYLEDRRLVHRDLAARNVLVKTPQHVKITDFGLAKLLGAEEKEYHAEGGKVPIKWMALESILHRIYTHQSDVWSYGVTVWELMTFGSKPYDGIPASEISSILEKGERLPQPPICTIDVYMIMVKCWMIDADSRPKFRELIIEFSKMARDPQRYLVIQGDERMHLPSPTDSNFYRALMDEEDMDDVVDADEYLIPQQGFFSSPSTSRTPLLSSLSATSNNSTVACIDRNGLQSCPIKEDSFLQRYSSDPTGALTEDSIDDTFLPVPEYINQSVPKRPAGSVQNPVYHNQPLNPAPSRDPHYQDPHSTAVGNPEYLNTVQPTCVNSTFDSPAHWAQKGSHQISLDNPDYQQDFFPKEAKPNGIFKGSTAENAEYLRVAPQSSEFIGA

In the case of `COc1cccc(-c2ccc(NC(=O)C3=C(C(=O)O)CCC3)c(F)c2)c1` [IMU-838, 1-cyclopentene-1-carboxylic acid, 2-(((3-fluoro-3′-methoxy(1,1′-biphenyl)-4-yl)amino)carbonyl)-, calcium salt (2:1)], the 50% inhibitory concentration (IC50) against mDHODH is 10 µM; in [12] (RT (reverse transcriptase)), 2.2 µM; in data set [12] (p24), 2 µM; in [13] (Replicon, luciferase), 4.6 µM; in the data set with Lassa fever Arena virus, 2.8 µM; in data set [17] it was more than 30 µM. This compound displayed a half-inhibitory concentration (IC50) in data set [18] of more than 50 µM. For the same compound, the EC50 was 6.1 µM in the data set on SARS-CoV-2 [1]; 10 µM in the data set with SARS-CoV-2 MUC-IMB-1 [3]; 6.8 µM in the data set with SARS-CoV-2 MUC-IMB-1 [4]; 7.5 to 15 µM in the data set with SARS-CoV-2 MUC-IMB-1 [5]; approximately 2 µM in data set [12] (human PBMCs, reverse transcriptase activity and p24, read-out: median effective dose (ED50) HIV); 4.6 µM in data set [13] (Huh7 cells, Luc activity readout, read-out: median ED50 HCV replicon). Also, the CC50 at 5 days in [2] was 7.9 µM. The results for the EC90 with SARS-CoV-2 USA_WA1/2020 and in the data set on SARS-CoV-2 MUC-IMB-1 [5] were 6.2 ± 1.9 µM and 15 to 30 µM, respectively. The “reduction of viral plaques” value with SARS-CoV-2 [6] was found to be 58 fold. Also, the Virus titer with SARS-CoV-2 [7] (IMU-838 1 μM alone) turned out to be 5.7 CCID50/ml; in the data set with SARS-CoV-2 [7] (IMU-838 5 μM alone), 5.7 CCID50/ml; with SARS-CoV-2 [7] (IMU-838 10 μM alone), 4.5 CCID50/ml. In addition, in the data set on SARS-CoV-2 [7] (all other concentrations (5, 1 μM), alone), the “reduction of virus titer” value is “did not reduce virus titer”. Moreover, the “T-cell mediated cytokine production” value in data set [8] is given as “able to block”. For the same compound, in data set [9], the “tolerated repeated daily dosing” value is “up to 50 mg”. Besides, the “COVID-19 related adverse events with increased intensity” value in data set [10] (IMU-838 treated patients) is 7.1%. The “reduction of C-reactive protein (CRP) vs placebo” value in data set [10] (blood) is given as “more effective reduction”. The “proportion of patients reaching clinical recovery” value in [10] (day 7, FAS, 2×22.5 mg + standard-of-care) came to 18.5%; in data set [10] (day 28, FAS), 71.3%. The “proportion of patients reaching clinical improvement (as assessed by the investigators)” value in data set [10] (day 14, FAS) is on record as 42.7%; in [10] (day 28, FAS) it was 90.9%. Besides, in data set [10] (day 14 and day 28), the “anti-viral effect by viral titers” value is “anti-viral effect of IMU-838 on SARS-CoV-2 was observed”. Also, in [10] (elderly patients (65 years or older), day 14, mFAS), the “patients reaching WHO score improvement by two points” value is 36.4%. For the same compound, the “acceleration of 75% probability to reach clinical improvement (centrally calculated) vs placebo” value in data set [10] (human, in vivo) was 2.9 days. In [10] (human, in vivo), the “acceleration of 75% probability to reach clinical improvement (investigator assessment) vs placebo” value is 3.8 days and 4.8 days. Moreover, the “reduction of D-dimer vs placebo” value in data set [10] (human, in vivo) is “more effective reduction”. The “shortening of third patient quartile for duration of hospitalization vs placebo” value in [10] (human, in vivo) came to 3.4 days. Also, in data set [10] (mFAS), the “time to clinical improvement vs placebo” value is “shorter”. The “clinical improvement (centrally calculated) when used early” value in [10] (within the first 8 days after onset of symptoms, mFAS) was “observed to be better”. Moreover, the “plasma levels achieved in the blood of treated patients” value in data set [11] fell in the range of 10 to 30 µM. Also, the CC50 in “in vitro [14]” is 88 µM; in the data set “in vitro [15]”, more than 100 µM; in the data set “in vitro [16]”, more than 60 µM. Further, the CC90 in the data set “in vitro [16]” is more than 60 µM. Further, in data set [19], the CC90 at 3 days is more than 100 µM. Besides, the “drug concentrations with no cytotoxicity observed” value with Vero 76 is listed as “up to 100 μM”. For the same compound, in data set [20], the “hematological effects of COVID19” value was “did not intensify”. Besides, the “rate of infections and infestations and rate of liver events vs placebo” value in data set [20] is “did not increase”. Besides, the “rate of serious adverse events and adverse events leading to treatment discontinuation vs placebo” value in data set [20] is “not increased”.

With `CCC(CC)COC(=O)[C@H](C)N[P@](=O)(OC[C@H]1O[C@@](C#N)(c2ccc3c(N)ncnn23)[C@H](O)[C@@H]1O)Oc1ccccc1` [Remdesivir, remdesivir, reference compound], the Virus titer is 5.0 CCID50/ml with SARS-CoV-2 [7] (remdesivir 1 μM alone), 1.7 CCID50/ml in the data set on SARS-CoV-2 [7] (remdesivir 5 μM alone) and less than 0.67 CCID50/ml in the data set on SARS-CoV-2 [7] (remdesivir 10 μM alone).

Take `COc1cccc(-c2ccc(NC(=O)C3=C(C(=O)O)CCC3)c(F)c2)c1` [Vidofludimus, 2-((3-fluoro-3′-methoxy-[1,1′-biphenyl]-4-yl)carbamoyl)cyclopent-1-enecarboxylic acid]: half-maximal inhibition in the data set on Human T-cells (IC50) required 4.1 µM. For the same compound, on EGFR, the “off-target activity on EGFR” value is listed as “does not hit”. For the same compound, the “off-target activity on Aurora-A kinases” value at Auroroa-A kinases was “does not hit”. For the same compound, the “effects on bone marrow” value in the data set with bone marrow is given as “lack detrimental effects on bone marrow”. Further, the blood plasma half-life in data set [21] was found to be 30 h.

`Cc1oncc1C(=O)Nc1ccc(C(F)(F)F)cc1` [leflunomide]: in data set [22], the blood plasma half-life was 384 to 456 h and the “dosing time to achieve therapeutic trough levels” value was “up to 2 months”.
